In paper PMC7307922 (Journal of Medicinal Chemistry, 2020):
Numbering of substitutions follows the chain as printed. pEC50: −log10 of the molar value. ≈ marks a conversion by molar mass, not a printed value. Where “and” joins values, the source holds several entries; their conditions need not be identical. Equal entries are not always repeated. Where two headings read alike, the source gives them in different places.

How the values were obtained:
hFFA3 [1] = molecular target: T1, hFFA3 (Homo sapiens, UniProt O14843); assay: cell-based; details: for Emax: HEK293, read-out: cAMP Emax; for cAMP pEC50: hFFA3, compound alone, mean of ≥3 independent experiments ± standard error
T1 sequence (O14843 1-346): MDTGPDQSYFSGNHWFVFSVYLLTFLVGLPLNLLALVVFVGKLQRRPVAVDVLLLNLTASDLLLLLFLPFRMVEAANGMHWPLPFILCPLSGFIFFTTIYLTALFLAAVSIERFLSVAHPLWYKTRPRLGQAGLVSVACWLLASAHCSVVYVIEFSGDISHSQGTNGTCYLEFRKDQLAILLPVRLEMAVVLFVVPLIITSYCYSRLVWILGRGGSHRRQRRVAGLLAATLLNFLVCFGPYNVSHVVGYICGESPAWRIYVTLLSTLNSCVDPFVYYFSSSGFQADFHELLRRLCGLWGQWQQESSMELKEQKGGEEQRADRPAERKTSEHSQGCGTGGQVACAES
Method: (§1) The ligands were initially screened in a human FFA3-dependent [^35S]GTPγS binding assay as this assay reflects receptor-mediated activation of Gi/o proteins and is known to generally correlate well with ligand affinity.[30] Analogues of particular interest were tested further in a cAMP inhibition assay as this is an important downstream effect of Gi-activation. […] It is furthermore performed in whole cells, is more downstream, includes G protein signal amplification, and therefore better reflects a more natural ligand–receptor response.
HEK293 Flp-In T-Rex cells stably transfected with FFA3-eYFP receptors were incubated overnight with doxycycline to induce expression, then harvested, and cryopreserved. On the day of each experiment, cells were thawed and resuspended in stimulation buffer. Assays were carried out using a 384-well plate format with 3000 cells/well using the CisBio cAMP GS dynamic kit as per manufacturer’s protocol. Compounds were tested for the ability to inhibit 0.3 μM forskolin-induced cAMP production after co-incubation for 1 h. Reactions were measured using a PHERAstar FS plate reader (BMGLabtech, Aylesbury, UK).

hFFA3 Q131A = molecular target: T2, hFFA3 Q131A (Homo sapiens, UniProt O14843, Q131A); assay: Potency at FFA3 mutant Q131A; format: cell-based
T2 sequence (O14843 1-346 Q131A): T1 sequence (O14843 1-346) with Q131A
Method: (§2) The previously published compound 1 was not affected by mutation of either R185A or R258A in the orthosteric binding site, and the compounds were therefore believed to be allosteric modulators. […] After the publication of the FFA1 crystal structure in complex with an allosteric agonist located in the TM region close to the intracellular site,[32] a homology model of hFFA3 was constructed using Modeller. […] Thus, additional docking of (R)-1 in this site were performed to find poses where Q131, but not R126, show a central role in binding. […] The narrow binding cavity around the core scaffold is in agreement with the restrained SAR observed for this series and the furan moiety pointing out of the binding cavity might explain the flexibility in substituents at this site (Figure 3c,d). Although Q131A impacts the potency of (R)-1 with high significance, the magnitude of the effect is lower than what would be generally expected for the removal of a hydrogen bond interaction; thus, additional studies are required to confirm the proposed binding site.

hFFA3 R126A = molecular target: T3, hFFA3 R126A (Homo sapiens, UniProt O14843, R126A); assay: Potency at FFA3 mutant R126A; format: cell-based
T3 sequence (O14843 1-346 R126A): T1 sequence (O14843 1-346) with R126A
Method: as §2

hFFA3 E112A = molecular target: T4, hFFA3 E112A (Homo sapiens, UniProt O14843, E112A); assay: Potency at FFA3 mutant E112A; format: cell-based
T4 sequence (O14843 1-346 E112A): T1 sequence (O14843 1-346) with E112A
Method: as §2

hFFA3 [2] = molecular target: T1, hFFA3; design: expressed in transfected cells; host or cells: Flp-In T-REx HEK293 (membranes); method as in PMID 24870406; details: previously characterized; cited from earlier work
hFFA3 [3] = molecular target: T1, hFFA3; assay: biochemical; details: for GTPγS pEC50: hFFA3, mean of ≥3 independent experiments ± standard error
Method: as §1
Membranes were isolated from Flp-In T-REx HEK293 cells treated with 100 ng/mL doxycycline to induce receptor expression. Cells were washed with ice-cold phosphate-buffered saline and removed from dishes by scraping before being centrifuged for 5 min at 4 °C, 3000 rpm. Pellets were resuspended in TE buffer (75 mM Tris–HCl, 5 mM EDTA; pH 7.5) with the addition of a protease inhibitor mixture (Roche Applied Science, West Sussex, UK). This was then homogenized with a 5 mL hand-held homogenizer and subsequently centrifuged at 1500 rpm for 5 min at 4 °C, from which the supernatant was collected and further centrifuged at 50 000 rpm for 30 min at 4 °C. The resulting pellet was resuspended in TE buffer, and the protein content was measured using a BCA protein assay kit (Pierce, Fisher Scientific, Loughborough, UK).
Reactions were initiated with the addition of [^35S]GTPγS at 50 nCi per tube; reactions were terminated after 1 h of incubation at 25 °C by rapid filtration through GF/C glass filters using a 24-well Brandel cell harvester (Alpha Biotech, Glasgow, UK). Unbound radioligand was removed from filters by washing three times with ice-cold wash buffer (50 mM Tris–HCl, pH 7.4, and 10 mM MgCl2), and [^35S]GTPγS binding was determined by liquid scintillation spectrometry.

[4] = Kinetic aqueous solubility in PBS pH 7.4; format: physicochemical; details: for solubility: pH 7.4, read-out: Aq. solub.
Method: (§3) Solubility and log D7.4 measurements were performed in accordance to the previously published procedures.[35]

[5] = Stability toward mouse liver microsomes; details: remaining after 40 min incubation with MLMs
Method: The study was performed by Bienta (www.bienta.net). Mouse hepatic microsomes were isolated from pooled and perfused livers of male BALB/c mice (n = 50). Isolation was performed according to the standard protocol.[36]
Microsomal incubations were carried out in 96-well plates in 5 aliquots of 40 μL each (one for each time point). Liver microsomal incubation medium comprised PBS (100 mM, pH 7.4), MgCl2 (3.3 mM), NADPH (3 mM), glucose-6-phosphate (5.3 mM), and glucose-6-phosphate dehydrogenase (0.67 units/mL) with 0.42 mg of liver microsomal protein per ml. In the control reactions, the NADPH-cofactor system was substituted with PBS. […] Each reaction was performed in duplicates. Five time points over 40 min were analyzed. The reactions were stopped by adding 12 volumes of 90% acetonitrile–water to incubation aliquots, followed by protein sedimentation by centrifuging at 5500 rpm for 3 min. […]. Supernatants were analyzed using HPLC-MS/MS on an API 3000 PE instrument.

log D7.4 measurement = format: physicochemical; details: pH 7.4; read-out: logD7.4
Method: as §3

[6] = efficacy relative to maximal response of propionate

| Compound | solubility ([4]; phosphate buffered saline) | MLM (%) remaining [5] | logD at 24 h (log D7.4 measurement) | Emax (hFFA3 [1]) | cAMP pEC50 (hFFA3 [1]) | other results |
| --- | --- | --- | --- | --- | --- | --- |
| CC1=C(C(=O)Nc2ccccc2C)[C@H](c2ccco2)C2=C(CCCC2=O)N1 [(R)-1] |  |  |  |  |  | pEC50 (hFFA3 [1]): 6.53; reduction of potency by mutation Q131A (hFFA3 Q131A; p < 0.001): > 3 fold; effect of mutation R126A on potency (hFFA3 R126A): did not affect; effect of mutation E112A on potency (hFFA3 E112A): did not affect |
| CC1=C(C(=O)Nc2ccccc2C)C(c2ccccc2Br)C2=C(CCCC2=O)N1 (stereo not drawn) [Compound 5] |  |  |  |  |  | activity alone and with propionate (hFFA3 [2]): inactive alone but to act as a PAM of propionate; GTPγS pEC50 (hFFA3 [3]): nr^e |
| CC1=C(C(=O)Nc2cc(Cl)ccc2Cl)C(c2nccs2)C2=C(CCCC2=O)N1 (stereo not drawn) [Compound 47, N-(2,5-Dichlorophenyl)-2-methyl-5-oxo-4-(thiazol-2-yl)-1,4,5,6,7,8-hexahydroquinoline-3-carboxamide] | 2 µM (≈ 0.869 µg/mL) | 2% | 3.39 |  |  | solubility [4]: 1 µM (≈ 0.434 µg/mL) |
| CC1=C(C(=O)Nc2cc(Cl)ccc2Cl)C(c2cscn2)C2=C(CCCC2=O)N1 (stereo not drawn) [Compound 49, N-(2,5-Dichlorophenyl)-2-methyl-5-oxo-4-(thiazol-4-yl)-1,4,5,6,7,8-hexahydroquinoline-3-carboxamide] | < 1 µM |  | 3.28 | 95% | 5.71 ± 0.08 |  |
| propionate [Compound C3, reference compound] |  |  |  |  | 4.93 ± 0.10 | GTPγS Emax (hFFA3 [3]; [6]): 100; GTPγS pEC50 (hFFA3 [3]): 4.97 ± 0.08; cAMP Emax (hFFA3 [1]; [6]): 100; effect of mutation Q131A on potency (hFFA3 Q131A): did not affect; effect of mutation R126A on potency (hFFA3 R126A): did not affect; effect of mutation E112A on potency (hFFA3 E112A): did not affect |
| CC1=C(C(=O)Nc2cc(Cl)ccc2Cl)C(c2ncco2)C2=C(CCCC2=O)N1 (stereo not drawn) [Compound 51, N-(2,5-Dichlorophenyl)-2-methyl-4-(oxazol-2-yl)-5-oxo-1,4,5,6,7,8-hexahydroquinoline-3-carboxamide] | 1 µM (≈ 0.418 µg/mL) | 12% | 2.59 | 95% | 6.72 ± 0.05 |  |
| CCCC1C(C(=O)Nc2cc(OC)ccc2Cl)=C(C)NC2=C1C(=O)CCC2 (stereo not drawn) [Compound 61, N-(2-Chloro-5-methoxyphenyl)-2-methyl-5-oxo-4-propyl-1,4,5,6,7,8-hexahydroquinoline-3-carboxamide] | 157 µM (≈ 61.1 µg/mL) |  | 3.07 | 96% | 5.96 ± 0.08 |  |
| CCCC1C(C(=O)Nc2cccc(Cl)c2)=C(C)NC2=C1C(=O)CCC2 (stereo not drawn) [Compound 59, N-(3-Chlorophenyl)-2-methyl-5-oxo-4-propyl-1,4,5,6,7,8-hexahydroquinoline-3-carboxamide] | 137 µM (≈ 49.2 µg/mL) |  | 3.77 | 105% | 5.97 ± 0.05 | increase of solubility compared to 57 ([4]; kinetic solubility): 4–5 fold |
| CC1=C(C(=O)Nc2cc(Cl)ccc2Cl)C(C2CC2)C2=C(CCCC2=O)N1 (stereo not drawn) [Compound 62, 4-Cyclopropyl-N-(2,5-dichlorophenyl)-2-methyl-5-oxo-1,4,5,6,7,8-hexahydroquinoline-3-carboxamide] | 5 µM (≈ 1.96 µg/mL) | 1−2% and 1% | 3.73 |  |  |  |
| CCCC1C(C(=O)Nc2ccccc2C)=C(C)NC2=C1C(=O)CCC2 (stereo not drawn) [Compound 35, 2-Methyl-5-oxo-4-propyl-N-(o-tolyl)-1,4,5,6,7,8-hexahydroquinoline-3-carboxamide] | 199 µM (≈ 67.4 µg/mL) | 23% |  | 101% | 5.92 ± 0.01 | logD (log D7.4 measurement): 2.64; PAM pEC50 (hFFA3 [1]; cAMP assay in the presence of 1 μM propionate): 6.16 ± 0.10 |
| CCCC1C(C(=O)Nc2ccccc2Cl)=C(C)NC2=C1C(=O)CCC2 (stereo not drawn) [Compound 58, N-(2-Chlorophenyl)-2-methyl-5-oxo-4-propyl-1,4,5,6,7,8-hexahydroquinoline-3-carboxamide] | 169 µM (≈ 60.6 µg/mL) |  | 3.22 | 105% | 6.06 ± 0.05 | increase of solubility compared to 57 ([4]; kinetic solubility): 4–5 fold |
| CC1=C(C(=O)Nc2cc(Cl)ccc2Cl)C(c2cocn2)C2=C(CCCC2=O)N1 (stereo not drawn) [Compound 50, N-(2,5-Dichlorophenyl)-2-methyl-4-(oxazol-4-yl)-5-oxo-1,4,5,6,7,8-hexahydroquinoline-3-carboxamide] | 62 µM (≈ 25.9 µg/mL) |  | 2.84 | 97% | 5.78 ± 0.03 | increase of solubility relative to 16 ([4]; kinetic solubility): > 10 fold |
